“Also recorded” adds a separate entry of the source.
What was measured:
Assay type in all cases: in vivo, CD-1 mice
[1] = tested on: Echis ocellatus venom; test: Murine preincubation (co-incubation) model of venom lethality, intravenous, with TAT ELISA; settings: 45 μg venom (2.5×LD50) preincubated 30 min at 37° C. with 60 μg of each drug, i.v., 6 h monitoring, n=5
Description: The intravenous median lethal dose (venom LD50) for E. ocellatus (Nigeria) of 17.85 μg per mouse was previously determined. Mice were challenged with 45 μg of E. ocellatus venom (2.5×the intravenous LD50 dose) in a refined version of the World Health Organization-recommended antivenom efficacy experiments. Groups of five male 18-22 g CD-1 mice (Charles River, UK) received experimental doses that consisted of either (a) venom only (2.5×LD50 dose), (b) venom and drug (60 μg) or (c) drug only. All experimental doses were prepared to a volume of 200 μl in PBS and incubated at 37° C. for 30 mins prior to their intravenous injection via the tail vein. Animals were monitored for 6 hours and euthanized upon observation of humane endpoints (seizure, pulmonary distress, paralysis, hemorrhage). Deaths, time of death, and survivors were recorded; where “deaths/time of death” represents the implementation of euthanasia based on the defined humane endpoints.
(§1) The same murine preincubation model was used to assess the efficacy of distinct toxin family inhibiting drugs in comparison with a drug combination. […] All experimental doses were prepared to a volume of 200 μl in PBS and incubated at 37° C. for 30 min prior to their intravenous injection via the tail vein. Animals were monitored for 6 h, and euthanized via rising concentrations of CO2 upon observation of previously defined humane end points that are predicators of lethality (e.g., seizure, pulmonary distress, paralysis, hemorrhage). Deaths, time of death, and survivors were recorded; where death/time of death represents the implementation of euthanasia based on defined humane end points.
Strong drug hits, those defined as inhibiting >80% of the venom activity in the previously described in vitro metalloproteinase assay (FIG. 1), were next progressed into murine preclinical efficacy studies, to assess their ability to prevent venom-induced lethality in vivo. We used an established in vivo model of envenoming to test the efficacy of the seven snake venom metalloproteinase toxin inhibitors identified. This model consisted of the preincubation of the test drug with venom, followed by intravenous injection of the mixture into groups of five male CD-1 mice (18-20 g) via the tail vein followed by 6 hour monitoring, and is based on principles laid out in the gold standard method of preclinical efficacy recommended by the World Health Organization.
We used an established in vivo model of envenoming^41,42 to test the efficacy of small molecule toxin inhibitors. […]

[2] = tested on: C. scutulatus venom; test: Murine preincubation model of venom lethality, North American pit viper venom; settings: 2.5×LD50 C. scutulatus venom preincubated with 60 μg of each drug, i.v., 6 h, n=5
Description: as §1, with “Thereafter, the” for “The”, “animal” for “preincubation”, “explore” for “assess”, “the same snake venom metalloproteinase and phospholipase A2” for “distinct toxin family”, “as solo and combination treatments against North American pit viper venoms. The intravenous median lethal dose (venom LD50) for C. atrox, C. scutulatus, S. miliariius and A. contortrix venoms was previously determined (3.79 μg, 0.17 μg, 4.87 μg and 4.99 μg per mouse, respectively).” for “in comparison with a drug combination.”, “As described above, all” for “All”
(§2) These snake species were selected for their taxonomic diversity and clinical importance in the USA, namely: 1) Crotalus atrox (Western diamondback), which is found across the southwest USA and into Mexico and is thought to be the most common cause of snakebite envenoming in USA, 2) Crotalus scutulatus (Mojave rattlesnake), which is also found across the southwest USA and into Mexico, 3) Sistrurus miliarius (pygmy rattlesnake), which is found in the South-East USA, and 4) Agkistrodon contortrix (Eastern copperhead), which is found in central and eastern USA. […] The drug treatments consisted of: DMPS, marimastat, or varespladib as solo drug treatments, or a DMPS and varespladib combination, or a marimastat and varespladib combination.

[3] = tested on: C. atrox venom; test: as above; settings: 2.5×LD50 C. atrox venom preincubated with 60 μg of each drug, i.v., 6 h, n=5
Description: as §1, with “Thereafter, the” for “The”, “animal” for “preincubation”, “explore” for “assess”, “the same snake venom metalloproteinase and phospholipase A2” for “distinct toxin family”, “as solo and combination treatments against North American pit viper venoms. The intravenous median lethal dose (venom LD50) for C. atrox, C. scutulatus, S. miliariius and A. contortrix venoms was previously determined (3.79 μg, 0.17 μg, 4.87 μg and 4.99 μg per mouse, respectively).” for “in comparison with a drug combination.”, “As described above, all” for “All”
as §2

[4] = tested on: A. contortrix venom; test: as above; settings: 2.5×LD50 A. contortrix venom preincubated with 60 μg of each drug, i.v., 6 h, n=5
Description: as §1, with “Thereafter, the” for “The”, “animal” for “preincubation”, “explore” for “assess”, “the same snake venom metalloproteinase and phospholipase A2” for “distinct toxin family”, “as solo and combination treatments against North American pit viper venoms. The intravenous median lethal dose (venom LD50) for C. atrox, C. scutulatus, S. miliariius and A. contortrix venoms was previously determined (3.79 μg, 0.17 μg, 4.87 μg and 4.99 μg per mouse, respectively).” for “in comparison with a drug combination.”, “As described above, all” for “All”
as §2

Row | Structure (SMILES) | survival / protection against venom-induced lethality [1] | protection against venom lethality [2] | protection against venom lethality [3] | protection against venom lethality [4]
1 | O=S(=O)(O)CC(S)CS (stereo not drawn) [DMPS, 2,3-dimercapto-1-propanesulfonic acid] | all animals surviving; also recorded: complete protection | some limited protection | Neither drug provided protection | Neither drug provided protection
2 | CNC(=O)[C@@H](NC(=O)[C@H](CC(C)C)[C@H](O)C(=O)NO)C(C)(C)C [marimastat] | only one death; also recorded: remaining four survived | some limited protection | Neither drug provided protection | Neither drug provided protection
3 | CCc1c(C(=O)C(N)=O)c2c(OCC(=O)O)cccc2n1Cc1ccccc1 [varespladib] | failed to prevent lethality over the full experimental time course | survive the duration of the experiment | survived for longer periods of time than the venom only controls | survived for longer periods of time than the venom only controls
